Tests used:
Wistar WU rats = assay: Light/dark discrimination test in rats; format: in vivo, rat; conditions: doses from 0.1 to 1 mg/kg
Procedure: LIGHT/DARK DISCRIMINATION TEST IN RATS
The test was carried out similarly to the test in mice described above, however modified in accordance with F. C. Colpaert et al., Psychopharmacology (1985) 86:45-54. The test used Wistar WU rats.

5-HT2 receptors = biological target: T1, 5-HT2 receptors (Rattus norvegicus, UniProt P14842); assay: Inhibition of 3H-ketanserin binding to 5-HT2 receptors in rat cortex in vitro; conditions: 3H-Ketanserin 0.5 nM, rat cortex, 37° C., 30 min; read-out: Receptor Binding; IC50 5-HT2 3H-Ket
T1 construct: cortical tissue is dissected and weighed; from tissue; host or cells: cortex of male Wistar rats, crude membranes

α1 adrenoceptors = assay: Inhibition of 3H-prazosin binding to α1 adrenoceptors in rat brain in vitro; conditions: 3H-Prazosin 0.25 nM, rat brain, 25° C., 20 min; read-out: Receptor Binding; IC50 α1 3H-Praz
male albino BKW mice = assay: Light/dark discrimination test in mice; format: in vivo, mouse; conditions: intraperitoneally 45 min before testing, doses from 0.01 to 1 mg/kg
Procedure: LIGHT/DARK DISCRIMATION TEST IN MICE
This test was carried out in accordance with the method described in Costall et al. Br. J. Pharmacol. 90 275P (1987).
The test was conducted using a two compartment activity box in which the actions of anxiolytic compounds to reduce aversion against a brightly-lit environment may be readily detected. The box is designed as an open-top experimental box (45*27*27 cm) one third of which was partitioned from the rest, painted black and illuminated with red light. The remainder of the box was painted white and brightly illuminated (1000 W). The floor of each area was lined into squares. Behavioral changes were determined for each area from video recordings for periods of 40 min.
Data obtained from dose groups of 5 animals (male albino BKW mice, 25-30 g) were analysed using single factor analysis of variance, and Dunnett's t-test. Test compounds were given intraperitoneally 45 min before testing.

dopamine D-2 receptors = biological target: T2, dopamine D-2 receptors (Rattus norvegicus, UniProt P61169); assay: Inhibition of 3H-spiperone binding to dopamine D-2 receptors in rat corpus striatum in vitro; conditions: 3H-spiperone 0.5 nM, rat corpus striatum, 37° C., 10 min; read-out: Receptor Binding; IC50 DA D-2 3H-Spi
T2 construct: striatal tissue is dissected and weighed; from tissue; host or cells: corpus striatum of male Wistar rats, crude membranes
Procedure: INHIBITION OF ^3 H-SPIPERONE BINDING TO DOPAMINE D-2 RECEPTORS IN RAT CORPUS STRIATUM IN VITRO
By this method the inhibition by drugs of the binding of ^3 H-spiperone (0.5 nM) to dopamine D-2 receptors in membranes from rat corpus striatum is determined in vitro.
Male Wistar (Mol:Wistar) rats (125-250 g) are sacrificed and striatal tissue is dissected and weighed. The tissue is homogenized (Ultra Turrax, 10 sec.) in 10 ml of ice-cold 50 mM K-phosphate buffer pH 7.4 (at 25° C.). The homogenate is centrifuged twice at 20,000 g for 10 min. at 4° C. with rehomogenization of the pellet in 10 ml ice-cold buffer. The final pellet is homogenized in 1300 vol (w/v) ice-cold buffer.
Incubation tubes kept on ice in triplicate receive 100 μl of drug solution in water (or water for total binding) and 4000 μl of tissue suspension (final tissue content corresponds to 3.08 mg original tissue). The binding experimental is initiated by addition of 100 μl of ^3 H-spiperone (final concentration 0.5 nM) and by placing the tubes in a 37° C. water bath. After incubation for 10 min. the samples are filtered under vacuum (0-50 mBar) through Whatman GF/F filters (25 mm). The tubes are rinsed with 5 ml ice-cold buffer which are then poured on the filters. Thereafter, the filters are washed with 2×5 ml of buffer. The filters are placed in counting vials and 4 ml of appropriate scintillation fluid (e.g. Picofluor ™15) are added. After shaking for 1 h and storage 2 hrs in the dark the content of radioactivity is determined by liquid scintillation counting. Specific binding is obtained by subtracting the nonspecific binding in the presence of 10 μM of 6,7-ADTN.
For determination of the inhibition of binding five concentrations of drugs covering 3 decades are used.
^3 H-Spiperone=[phenyl-4-^3 H]-spiperone from Amersham International plc. England, specific activity 15-25 Ci/mmol.

[1] = Meert and Janssen, Drug Dev. Res. 1989, 18, 119; cited from earlier work

T2 sequence (P61169 whole entry): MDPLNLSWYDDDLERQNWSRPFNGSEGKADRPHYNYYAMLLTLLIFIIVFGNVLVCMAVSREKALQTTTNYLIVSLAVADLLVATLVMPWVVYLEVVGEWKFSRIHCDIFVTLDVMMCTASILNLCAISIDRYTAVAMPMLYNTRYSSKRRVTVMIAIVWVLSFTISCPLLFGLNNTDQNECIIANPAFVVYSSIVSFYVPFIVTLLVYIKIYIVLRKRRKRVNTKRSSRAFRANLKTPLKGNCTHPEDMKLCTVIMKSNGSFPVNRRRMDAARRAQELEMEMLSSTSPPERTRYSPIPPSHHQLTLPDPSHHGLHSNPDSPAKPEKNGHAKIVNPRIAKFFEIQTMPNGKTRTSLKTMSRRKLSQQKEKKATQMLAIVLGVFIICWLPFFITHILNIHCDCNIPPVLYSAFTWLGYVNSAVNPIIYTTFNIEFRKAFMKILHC
T1 sequence (P14842 whole entry): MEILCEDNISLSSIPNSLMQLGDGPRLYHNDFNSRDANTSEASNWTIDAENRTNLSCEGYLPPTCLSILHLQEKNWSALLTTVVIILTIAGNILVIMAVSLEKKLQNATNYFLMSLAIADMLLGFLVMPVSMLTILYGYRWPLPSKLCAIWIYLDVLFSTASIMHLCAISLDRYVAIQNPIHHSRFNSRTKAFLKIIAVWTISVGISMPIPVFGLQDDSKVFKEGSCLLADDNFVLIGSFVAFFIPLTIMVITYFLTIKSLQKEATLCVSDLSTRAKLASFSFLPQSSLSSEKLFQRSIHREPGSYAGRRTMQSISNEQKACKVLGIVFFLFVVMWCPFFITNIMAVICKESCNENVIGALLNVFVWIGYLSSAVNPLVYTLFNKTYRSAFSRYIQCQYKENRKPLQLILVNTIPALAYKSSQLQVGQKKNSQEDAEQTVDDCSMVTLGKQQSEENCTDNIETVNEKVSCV

| SMILES | anxiolytic activity (Wistar WU rats) | IC50 (5-HT2 receptors) | IC50 (α1 adrenoceptors) | anxiolytic activity (male albino BKW mice) | IC50 (dopamine D-2 receptors) | effect in the treatment of anxiety and depression [1] |
| --- | --- | --- | --- | --- | --- | --- |
| Fc1ccc([C@@H]2C[C@@H](N3CCN(CCN4CCCNC4=S)CC3)c3ccc(Cl)cc32)cc1 (single isomer, unassigned) [(-)-32, (-)-Trans-1-[2-[4-[5-chloro-3-(4-fluorophenyl)-2,3-dihydro-1H-inden-1-yl]piperazin-1-yl]ethyl]-tetrahydro-2(1H)-pyrimidinethione] | significant anxiolytic activity (p<0.05) in doses from 0.1 to 1 mg/kg | 0.75 nM | 67 nM | significant anxiolytic activity (p<0.05) in doses from 0.01 to 1 mg/kg |  |  |
| Fc1ccc([C@@H]2C[C@@H](N3CCN(CCN4CCCNC4=S)CC3)c3ccc(F)cc32)cc1 (single isomer, unassigned) [(+)-30, (+)-Trans-1-[2-[4-[5-fluoro-3-(4-fluorophenyl)-2,3-dihydro-1H-inden-1-yl]piperazin-1-yl]ethyl]-tetrahydro-2(1H)-pyrimidinethione] |  | 0.95 nM | 43 nM | significant anxiolytic activity (p<0.05) in doses from 0.01 to 1 mg/kg |  |  |
| Cc1ccc2c(c1)[C@@H](c1ccc(F)cc1)C[C@@H]2N1CCN(CCO)CC1 (relative stereo) [Compound 8, Trans-4-[3-(4-fluorophenyl)-5-methyl-2,3-dihydro-1H-inden-1-yl]-1-piperazine ethanol] |  | 12 nM | 270 nM |  | 1000 nM |  |
| CC(C)N1CCN(CCN2CCN([C@@H]3C[C@@H](c4ccc(F)cc4)c4cc(Cl)ccc43)CC2)C1=S (relative stereo) [Compound 36, Trans-1-[2-[4-[5-chloro-3-(4-fluorophenyl)-2,3-dihydro-1-H-inden-1-yl]piperazin-1-yl]ethyl]-3-isopropyl-2-imidazolidinthione] |  | 3.6 nM | 69 nM |  | 260 nM |  |
| CC(C)N1CCN(CCN2CCN([C@@H]3C[C@@H](c4ccc(F)cc4)c4cc(C(F)(F)F)ccc43)CC2)C1=O (relative stereo) [Compound 13, Trans-1-[2-[4-[3-(4-fluorophenyl)-5-(trifluoromethyl)-2,3-dihydro-1H-inden-1-yl]piperazin-1-yl]ethyl]-3-isopropyl-2-imidazolidinone] |  | 3.7 nM | 350 nM |  | 510 nM |  |
| Cc1nc2sccn2c(=O)c1CCN1CCC(=C(c2ccc(F)cc2)c2ccc(F)cc2)CC1 [Ritanserin, reference compound] |  |  | 47 nM |  | 12 nM | effective in the treatment of anxiety and depression |
| CCN1CCN(CCN2CCN([C@@H]3C[C@@H](c4ccc(F)cc4)c4cc(Cl)ccc43)CC2)C1=O (relative stereo) [Compound 19, Trans-1-[2-[4-[5-chloro-3-(4-fluorophenyl)-2,3-dihydro-1H-inden-1-yl]piperazin-1-yl]ethyl]-3-ethyl-2-imidazolidinone] |  | 2.6 nM | 240 nM |  | 260 nM |  |
| Fc1ccc([C@@H]2C[C@@H](N3CCN(CCN4CCNC4=S)CC3)c3ccc(Cl)cc32)cc1 (relative stereo) [Compound 31, Trans-1-[2-[4-[5-chloro-3-(4-fluorophenyl)-2,3-dihydro-1H-inden-1-yl]piperazin-1-yl]ethyl]-2-imidazolidinthione] |  | 1.5 nM | 52 nM |  | 67 nM |  |
| Cc1ccc2c(c1)[C@H](c1ccc(F)cc1)C[C@H]2N1CCN(CCN2CCNC2=O)CC1 (relative stereo) [Compound 9, Trans-1-[2-[4-[3-(4-fluorophenyl)-5-methyl-2,3-dihydro-1H-inden-1-yl]piperazine-1-yl]ethyl]-2-imidazolidinone] |  | 3.7 nM | 220 nM |  | 370 nM |  |
| Fc1ccc([C@H]2C[C@H](N3CCNCC3)c3ccc(Cl)cc32)cc1 (single isomer, unassigned) [(-)-10] |  | 15 nM | 390 nM |  | 730 nM |  |
| O=C1NCCCN1CCN1CCN([C@@H]2C[C@@H](c3ccc(F)cc3)c3cc(F)ccc32)CC1 (single isomer, unassigned) [(+)-33, (+)-Trans-1-[2-[4-[5-fluoro-3-(4-fluorophenyl)-2,3-dihydro-1H-inden-1-yl]piperazin-1-yl]ethyl]-tetrahydro-2(1H)-pyrimidinone] | significant anxiolytic activity (p<0.05) in doses from 0.1 to 1 mg/kg | 1.1 nM | 41 nM | significant anxiolytic activity (p<0.05) in doses from 0.01 to 1 mg/kg |  |  |

From patent US5643784A, “Indan derivatives” (H, Lundbeck A/S, priority 1990, dated 1997)
